Reference: ChEMBL document CHEMBL1629464, “Aldehyde oxidase: an enzyme of emerging importance in drug discovery” (J Med Chem, 2010)
pIC50: −log10 of the molar value.

Key:
[1] = Oral bioavailability in dog; assay type: ADME, organism-based, Canis lupus familiaris; conditions: in vivo
Aldehyde oxidase 1 [2] = molecular target: T1, Aldehyde oxidase 1 (Rattus norvegicus, UniProt Q9Z0U5); experiment: Inhibition of rat aldehyde oxidase
T1 sequence (Q9Z0U5 whole entry): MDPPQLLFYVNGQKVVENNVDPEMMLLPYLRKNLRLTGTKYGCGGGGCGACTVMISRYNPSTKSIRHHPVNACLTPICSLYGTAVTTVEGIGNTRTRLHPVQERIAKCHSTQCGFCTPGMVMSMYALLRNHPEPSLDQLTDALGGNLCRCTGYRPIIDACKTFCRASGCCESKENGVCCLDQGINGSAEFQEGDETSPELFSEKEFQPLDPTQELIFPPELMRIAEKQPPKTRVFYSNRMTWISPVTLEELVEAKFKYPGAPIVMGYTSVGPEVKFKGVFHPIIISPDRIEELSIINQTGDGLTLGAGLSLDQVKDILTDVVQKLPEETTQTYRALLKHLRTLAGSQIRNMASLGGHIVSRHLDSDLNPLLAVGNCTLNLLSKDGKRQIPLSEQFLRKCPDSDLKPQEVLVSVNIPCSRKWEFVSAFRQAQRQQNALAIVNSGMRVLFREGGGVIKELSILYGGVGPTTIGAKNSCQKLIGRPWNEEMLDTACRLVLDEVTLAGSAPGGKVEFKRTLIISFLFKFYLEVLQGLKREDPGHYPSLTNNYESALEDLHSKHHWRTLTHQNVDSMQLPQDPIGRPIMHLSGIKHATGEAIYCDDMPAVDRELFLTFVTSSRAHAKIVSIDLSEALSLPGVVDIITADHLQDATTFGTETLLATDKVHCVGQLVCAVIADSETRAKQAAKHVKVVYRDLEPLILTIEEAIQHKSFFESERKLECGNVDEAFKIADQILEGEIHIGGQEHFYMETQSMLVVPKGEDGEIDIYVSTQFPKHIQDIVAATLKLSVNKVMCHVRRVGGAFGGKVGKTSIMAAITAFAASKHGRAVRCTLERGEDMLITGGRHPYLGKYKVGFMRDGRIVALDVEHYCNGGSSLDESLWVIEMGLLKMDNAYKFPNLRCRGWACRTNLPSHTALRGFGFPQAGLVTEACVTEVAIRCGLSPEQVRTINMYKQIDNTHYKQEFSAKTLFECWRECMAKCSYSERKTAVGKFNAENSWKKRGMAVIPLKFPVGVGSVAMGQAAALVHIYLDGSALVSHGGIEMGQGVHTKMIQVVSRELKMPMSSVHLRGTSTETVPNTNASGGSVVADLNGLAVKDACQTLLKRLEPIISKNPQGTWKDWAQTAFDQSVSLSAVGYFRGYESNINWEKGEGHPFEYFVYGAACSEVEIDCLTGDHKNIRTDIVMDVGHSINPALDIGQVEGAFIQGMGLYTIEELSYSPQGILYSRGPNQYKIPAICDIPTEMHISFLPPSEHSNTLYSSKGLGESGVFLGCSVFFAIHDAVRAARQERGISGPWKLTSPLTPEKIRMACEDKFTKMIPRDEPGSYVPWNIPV

Aldehyde oxidase 1 [3] = molecular target: T2, Aldehyde oxidase 1 (Mus musculus, UniProt O54754); experiment: Inhibition of mouse aldehyde oxidase
T2 sequence (O54754 whole entry): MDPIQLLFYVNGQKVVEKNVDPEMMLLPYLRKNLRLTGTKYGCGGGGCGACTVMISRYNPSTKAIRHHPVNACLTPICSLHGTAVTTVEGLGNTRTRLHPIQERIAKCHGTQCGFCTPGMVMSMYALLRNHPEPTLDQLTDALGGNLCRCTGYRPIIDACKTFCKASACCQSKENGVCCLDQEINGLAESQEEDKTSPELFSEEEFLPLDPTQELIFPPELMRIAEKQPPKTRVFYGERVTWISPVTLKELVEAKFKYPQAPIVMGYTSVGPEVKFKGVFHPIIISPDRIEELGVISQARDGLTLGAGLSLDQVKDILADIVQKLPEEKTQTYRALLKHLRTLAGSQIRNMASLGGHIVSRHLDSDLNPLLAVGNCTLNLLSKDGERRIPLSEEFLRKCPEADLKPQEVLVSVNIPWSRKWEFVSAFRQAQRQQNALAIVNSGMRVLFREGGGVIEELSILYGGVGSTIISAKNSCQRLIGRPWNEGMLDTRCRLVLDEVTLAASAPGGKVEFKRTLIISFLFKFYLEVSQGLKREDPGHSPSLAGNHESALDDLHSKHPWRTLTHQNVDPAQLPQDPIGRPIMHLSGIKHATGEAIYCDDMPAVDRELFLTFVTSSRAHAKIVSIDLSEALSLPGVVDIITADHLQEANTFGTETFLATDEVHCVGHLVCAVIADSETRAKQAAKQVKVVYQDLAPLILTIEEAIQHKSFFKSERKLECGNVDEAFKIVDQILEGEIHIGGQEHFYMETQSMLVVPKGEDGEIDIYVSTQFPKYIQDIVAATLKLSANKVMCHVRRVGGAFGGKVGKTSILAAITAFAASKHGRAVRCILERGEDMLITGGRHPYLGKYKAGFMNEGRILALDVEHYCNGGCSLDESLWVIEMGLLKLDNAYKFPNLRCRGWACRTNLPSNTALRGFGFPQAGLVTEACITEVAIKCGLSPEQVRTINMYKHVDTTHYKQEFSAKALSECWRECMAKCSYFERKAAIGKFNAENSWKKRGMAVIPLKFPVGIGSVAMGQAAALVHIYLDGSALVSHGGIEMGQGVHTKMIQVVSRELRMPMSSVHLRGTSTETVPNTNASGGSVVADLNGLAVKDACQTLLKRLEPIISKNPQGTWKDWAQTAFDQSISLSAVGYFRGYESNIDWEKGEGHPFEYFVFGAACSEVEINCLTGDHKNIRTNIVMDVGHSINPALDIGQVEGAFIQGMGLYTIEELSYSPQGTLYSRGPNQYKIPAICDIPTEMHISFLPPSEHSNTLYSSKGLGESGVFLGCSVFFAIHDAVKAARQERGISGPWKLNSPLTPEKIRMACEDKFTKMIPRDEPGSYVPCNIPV

Aldehyde oxidase 1 [4] = molecular target: T3, Aldehyde oxidase 1 (Macaca fascicularis, UniProt Q5FB27); experiment: Inhibition of monkey aldehyde oxidase
T3 sequence (Q5FB27 whole entry): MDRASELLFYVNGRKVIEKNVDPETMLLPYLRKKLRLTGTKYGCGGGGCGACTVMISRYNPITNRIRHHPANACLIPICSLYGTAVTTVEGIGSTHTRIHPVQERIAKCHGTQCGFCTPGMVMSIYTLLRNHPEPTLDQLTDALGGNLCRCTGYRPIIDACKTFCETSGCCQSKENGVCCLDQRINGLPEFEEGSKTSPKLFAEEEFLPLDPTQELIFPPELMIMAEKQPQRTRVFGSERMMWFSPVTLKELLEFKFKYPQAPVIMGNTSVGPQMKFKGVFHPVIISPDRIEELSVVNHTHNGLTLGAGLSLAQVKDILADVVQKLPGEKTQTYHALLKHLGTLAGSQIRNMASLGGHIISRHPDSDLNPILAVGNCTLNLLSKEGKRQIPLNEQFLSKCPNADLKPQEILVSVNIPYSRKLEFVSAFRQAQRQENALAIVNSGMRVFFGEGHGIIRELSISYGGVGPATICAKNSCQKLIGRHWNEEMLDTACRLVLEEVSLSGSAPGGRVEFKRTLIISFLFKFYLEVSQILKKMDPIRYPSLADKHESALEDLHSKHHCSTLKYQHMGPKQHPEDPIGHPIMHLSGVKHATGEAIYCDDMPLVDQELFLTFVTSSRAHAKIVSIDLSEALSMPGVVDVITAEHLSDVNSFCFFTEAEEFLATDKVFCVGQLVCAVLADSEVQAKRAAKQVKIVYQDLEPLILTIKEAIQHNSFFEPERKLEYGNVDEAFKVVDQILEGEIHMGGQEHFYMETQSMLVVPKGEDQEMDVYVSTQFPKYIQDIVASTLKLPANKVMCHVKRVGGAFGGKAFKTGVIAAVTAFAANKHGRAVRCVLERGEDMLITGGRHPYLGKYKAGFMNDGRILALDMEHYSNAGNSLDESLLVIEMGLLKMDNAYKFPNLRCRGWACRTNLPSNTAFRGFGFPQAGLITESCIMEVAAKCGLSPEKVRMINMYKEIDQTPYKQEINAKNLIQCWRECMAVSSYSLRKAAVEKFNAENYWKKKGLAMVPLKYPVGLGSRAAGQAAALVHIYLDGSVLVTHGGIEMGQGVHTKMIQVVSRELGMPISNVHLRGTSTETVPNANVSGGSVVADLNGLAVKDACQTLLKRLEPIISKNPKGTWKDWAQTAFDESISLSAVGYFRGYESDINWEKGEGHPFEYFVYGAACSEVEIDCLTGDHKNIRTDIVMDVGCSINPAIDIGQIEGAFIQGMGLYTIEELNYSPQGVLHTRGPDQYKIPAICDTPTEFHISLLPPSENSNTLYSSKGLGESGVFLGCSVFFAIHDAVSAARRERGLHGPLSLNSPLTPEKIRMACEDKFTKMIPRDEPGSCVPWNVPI

Homo sapiens = experiment: In-vivo intrinsic clearance in human; assay type: ADME, organism-based

In the case of `CCNC(=O)OC1CCN(c2n[nH]c(=O)c3cc(OC)c(OC)cc23)CC1`, the bioavailability [1] was 68%.
`O=C(c1ccc(OCCN2CCCCC2)cc1)c1c(-c2ccc(O)cc2)sc2cc(O)ccc12` [RALOXIFENE] showed a pIC50 (Aldehyde oxidase 1 [2]) of 5.96, a pIC50 (Aldehyde oxidase 1 [3]) of 6.30 and a pIC50 (Aldehyde oxidase 1 [4]) of 6.30.
For `CCN(C(C)=O)c1cccc(-c2ccnc3c(C#N)cnn23)c1` [ZALEPLON], the CL (Homo sapiens) was 90 mL/min/kg.
